US20050009834A1, “Azole compounds, process for preparation of the same and use thereof” (priority 2001, published 2005)

Experiments:
Tetranychus urticae = assay: acaricidal effect for Tetranychus urticae (spray on string bean); assay type: in vivo; details: 500 ppm, female imagoes, survivors counted on second and seventh day after treatment, 25° C.
Experimental: 2) acaricidal effect for Tetranychus urticae Ten female imagoes Tetranychus urticae were set free on a string bean wherein first leaves had just developed. On the following day, the pesticidal solution, which was prepared by dissolving 5 mg of test compound (represented by the compound Nos. in the above Examples) in 0.5 ml of acetone containing Tween 20 (trade name) and then diluting it to the prescribed concentration (500 ppm) with Dain water diluted 5000-fold, was sprayed with spray gun in the amounts wherein the pesticidal solution dripped. The string bean was left in a temperature-controlled breeding room (25° C.). On the second and seventh day after treatment, the number of surviving Tetranychus urticae was examined. The rate of decrease was calculated by the following formula, and the result was shown in table 40. rate of decrease (%)=(1−(S2/(5.59×(10+(10+S1)/2+S1))))×100 • S1; the number of surviving imagoes on the second day after S2; the number of surviving imagoes on the seventh day after […]

Plutella xylostella = assay: insecticidal effect for Plutella xylostella (cabbage leaf dip); assay type: in vivo; details: 100 ppm, second-instar larvae, fifth day after, 24° C.
Experimental: 1) insecticidal effect for Plutella xylostella One 7 to 8-leave stage foliage leaf of cabbage was cut off and dipped in a pesticidal solution for a few seconds, which was prepared by dissolving 5 mg of test compound (represented by the compound Nos. in the above Examples) in 0.5 ml of acetone containing Tween 20 (trade name) and then diluting it to the prescribed concentration (100 ppm) with Dain water diluted 5000-fold. After drying the pesticidal solution, the leaf was put into an ice cream cup (180 ml), and ten second-instar larvae of Plutella xylostella were set free. The cup was left in a temperature-controlled breeding room (24° C.). On the fifth day after, the number of surviving Plutella xylostella was examined. The rate of dead pests was calculated by the following formula, and the result was shown in table 39. rate of dead pests (%)=(number of dead pests/number of test pests)×100

Row | melting point [°C] | Compound | Rate of decrease (%) (Tetranychus urticae) | Rate of dead pests (%) (Plutella xylostella)
1 | – | Cc1nc(-c2c(F)cccc2Cl)nn1-c1ccc(C(C)Oc2ncc(C(F)(F)F)cc2Cl)cc1 (racemic) [T-267] | 99 | 100
2 | 109 | Cc1nc(-c2ccccc2F)cn1-c1ccc(COc2ncc(C(F)(F)F)cc2Cl)cc1 [I-63, 1-[4-[3-chloro-5-(trifluoromethyl)pyridin-2-yloxymethyl]phenyl]-4-(2-fluorophenyl)-2-methylimidazole] | – | –
3 | – | Fc1ccccc1-c1cn(-c2ccc(COc3ncc(C(F)(F)F)cc3Cl)cc2)c(Cl)n1 [I-77] | 95 | –
4 | – | O=Cc1nc(-c2ccccc2F)cn1-c1ccc(COc2ncc(C(F)(F)F)cc2Cl)cc1 [I-82] | 99 | –
5 | – | Fc1cccc(Cl)c1-c1cc(Cl)n(-c2ccc(COc3ncc(C(F)(F)F)cc3Cl)cc2)n1 [P-21, 5-chloro-3-(2-chloro-6-fluorophenyl)-1-[4-(3-chloro-5-trifluoromethylpyridin-2-yloxymethyl)phenyl]pyrazole] | 99 | 100
6 | – | Cc1nc(-c2c(F)cccc2Cl)nn1-c1ccc(COc2ccc(Cl)cc2)cc1 [T-3] | 98 | 100
7 | – | Cc1nc(-c2c(F)cccc2Cl)nn1-c1ccc(COc2ccc(C(F)(F)F)cc2)cc1 [T-5] | 96 | 95
8 | – | Cc1nc(-c2c(F)cccc2Cl)nn1-c1ccc(COc2ccc(Cl)cc2Cl)cc1 [T-9] | 99 | 100
9 | – | Cc1nc(-c2c(F)cccc2Cl)nn1-c1ccc(COc2ccc(C(F)(F)F)cc2Cl)cc1 [T-12] | 98 | 100
10 | – | Cc1nc(-c2c(F)cccc2Cl)nn1-c1ccc(COc2ccc(C(F)(F)F)cn2)cc1 [T-17] | – | 100
11 | – | Cc1nc(-c2c(F)cccc2Cl)nn1-c1ccc(COc2ccc(Cl)cn2)cc1 [T-18] | 97 | 100
12 | – | Cc1nc(-c2c(F)cccc2Cl)nn1-c1ccc(COc2ncc(Cl)cc2Cl)cc1 [T-20] | 98 | 100
13 | – | Cc1nc(-c2c(F)cccc2Cl)nn1-c1ccc(COc2ncc(C(F)(F)F)cc2Cl)cc1 [T-21, 3-(2-chloro-6-fluorophenyl)-1-[4-(3-chloro-5-trifluoromethylpyridin-2-yloxymethyl)phenyl]-5-methyl-1H-1,2,4-triazole] | 100 | 100
14 | – | Cc1nc(-c2c(F)cccc2Cl)nn1-c1ccc(COc2ncc(Cl)cn2)cc1 [T-24] | 97 | –
15 | – | Cc1nc(-c2c(F)cccc2Cl)nn1-c1ccc(COc2nnc(C(F)(F)F)s2)cc1 [T-25] | 99 | –
16 | – | Cc1nc(-c2c(F)cccc2Cl)nn1-c1ccc(COc2ncc(C(F)(F)F)cc2Cl)cn1 [T-28] | 98 | 100
17 | – | Cc1nc(-c2c(F)cccc2Cl)nn1-c1ccc(COc2ncc(C(F)(F)F)cc2Cl)cc1Cl [T-30] | 99 | 100
18 | – | Nc1nc(-c2c(F)cccc2Cl)nn1-c1ccc(COc2ncc(C(F)(F)F)cc2Cl)cc1 [T-40] | 97 | 95
19 | – | Fc1cccc(Cl)c1-c1nc(Cl)n(-c2ccc(COc3ncc(C(F)(F)F)cc3Cl)cc2)n1 [T-43] | 100 | 100
20 | – | COc1nc(-c2c(F)cccc2Cl)nn1-c1ccc(COc2ncc(C(F)(F)F)cc2Cl)cc1 [T-46] | 99 | 100
21 | – | Fc1cccc(Cl)c1-c1nc(C(F)(F)F)n(-c2ccc(COc3ncc(C(F)(F)F)cc3Cl)cc2)n1 [T-47] | 100 | 100
22 | – | CCc1nc(-c2c(F)cccc2Cl)nn1-c1ccc(COc2ncc(C(F)(F)F)cc2Cl)cc1 [T-48] | 99 | 100
23 | – | N#Cc1nc(-c2c(F)cccc2Cl)nn1-c1ccc(COc2ncc(C(F)(F)F)cc2Cl)cc1 [T-52] | 97 | 100
24 | – | Fc1cccc(Cl)c1-c1nc(CCl)n(-c2ccc(COc3ncc(C(F)(F)F)cc3Cl)cc2)n1 [T-53] | 99 | –
25 | – | FCc1nc(-c2c(F)cccc2Cl)nn1-c1ccc(COc2ncc(C(F)(F)F)cc2Cl)cc1 [T-54] | 98 | –
26 | – | COCc1nc(-c2c(F)cccc2Cl)nn1-c1ccc(COc2ncc(C(F)(F)F)cc2Cl)cc1 [T-56] | 98 | 100

Row | melting point [°C] | Compound | Rate of decrease (%) (Tetranychus urticae) | Rate of dead pests (%) (Plutella xylostella)
27 | – | Cc1nc(-c2c(F)cccc2F)nn1-c1ccc(COc2ccc(C(F)(F)F)cn2)cc1 [T-66] | – | 95
28 | – | Cc1cccc(C)c1-c1nc(C)n(-c2ccc(COc3ncc(C(F)(F)F)cc3Cl)cc2)n1 [T-74] | 97 | 100
29 | – | FC(F)(F)c1cnc(OCc2ccc(-n3cnc(-c4cc(Cl)nc(Cl)c4)n3)cc2)c(Cl)c1 [T-75] | 99 | –
30 | – | Fc1cccc(F)c1-c1ncn(-c2ccc(COc3ncc(C(F)(F)F)cc3Cl)cc2)n1 [T-76] | 96 | –
31 | – | Fc1cccc(F)c1-c1nc(Cl)n(-c2ccc(COc3ncc(C(F)(F)F)cc3Cl)cc2)n1 [T-78] | 98 | 100
32 | – | CCc1nc(-c2c(F)cccc2F)nn1-c1ccc(COc2ncc(C(F)(F)F)cc2Cl)cc1 [T-88] | 98 | 95
33 | – | CC(C)c1nc(-c2c(F)cccc2Cl)nn1-c1ccc(COc2ncc(C(F)(F)F)cc2Cl)cc1 [T-92] | 98 | –
34 | – | Fc1cccc(Cl)c1-c1nc(C2CC2)n(-c2ccc(COc3ncc(C(F)(F)F)cc3Cl)cc2)n1 [T-93] | 97 | –
35 | – | C=Cc1nc(-c2c(F)cccc2Cl)nn1-c1ccc(COc2ncc(C(F)(F)F)cc2Cl)cc1 [T-106] | 97 | 100
36 | – | O=Cc1nc(-c2c(F)cccc2Cl)nn1-c1ccc(COc2ncc(C(F)(F)F)cc2Cl)cc1 [T-107] | 100 | 100
37 | – | Fc1cccc(Cl)c1-c1nc(C(F)F)n(-c2ccc(COc3ncc(C(F)(F)F)cc3Cl)cc2)n1 [T-120] | 99 | 100
38 | – | Cc1nc(-c2cccnc2Cl)nn1-c1ccc(COc2ncc(C(F)(F)F)cc2Cl)cc1 [T-130] | 98 | –
39 | – | Cc1nc(-c2c(Cl)cc(Cl)cc2Cl)nn1-c1ccc(COc2ncc(C(F)(F)F)cc2Cl)cc1 [T-131] | 100 | –
40 | – | C#Cc1nc(-c2c(F)cccc2Cl)nn1-c1ccc(COc2ncc(C(F)(F)F)cc2Cl)cc1 [T-132] | 100 | –
41 | – | Cc1nc(-c2c(F)cccc2C(F)(F)F)nn1-c1ccc(COc2ncc(C(F)(F)F)cc2Cl)cc1 [T-133] | 99 | 95
42 | – | Cc1nc(-c2c(F)c(F)cc(F)c2F)nn1-c1ccc(COc2ncc(C(F)(F)F)cc2Cl)cc1 [T-134] | 100 | –
43 | – | Cc1nc(-c2c(F)cc(F)cc2F)nn1-c1ccc(COc2ncc(C(F)(F)F)cc2Cl)cc1 [T-135] | 96 | –
44 | – | Cc1nc(-c2ccccc2OC(F)(F)F)nn1-c1ccc(COc2ncc(C(F)(F)F)cc2Cl)cc1 [T-136] | 99 | –
45 | – | Cc1nc(-c2c(F)ccc(Cl)c2F)nn1-c1ccc(COc2ncc(C(F)(F)F)cc2Cl)cc1 [T-137] | 99 | –
46 | – | Cc1nc(-c2c(F)ccc(F)c2Cl)nn1-c1ccc(COc2ncc(C(F)(F)F)cc2Cl)cc1 [T-138] | 99 | –
47 | – | Cc1nc(-c2c(F)cccc2Cl)nn1-c1ccc(COc2ncc(C(F)(F)F)cn2)cc1 [T-139] | 97 | –
48 | – | COc1cccc(OC)c1-c1nc(C)n(-c2ccc(COc3ncc(C(F)(F)F)cc3Cl)cc2)n1 [T-140] | 99 | –
49 | – | COC(=O)c1nc(-c2c(F)cccc2Cl)nn1-c1ccc(COc2ncc(C(F)(F)F)cc2Cl)cc1 [T-143] | 98 | –
50 | – | CC1=CN(Cc2ccc(COc3ncc(C(F)(F)F)cc3Cl)cc2)NC(c2c(F)cccc2Cl)=N1 [T-171, 3-(2-chloro-6-fluorophenyl)-1-[4-(3-chloro-5-trifluoromethyl-2-pyridyloxymethyl)phenylmethyl]-5-methyl-1H-1,2,4-triazine] | 99 | –
51 | – | Cc1nc(-c2c(F)cccc2Cl)nn1Cc1ccc(COc2ncc(C(F)(F)F)cc2Cl)cc1 [T-172] | 98 | –
52 | – | Cc1nc(-c2c(F)cccc2Cl)nn1-c1ccc(Oc2ncc(C(F)(F)F)cc2Cl)cc1 [T-264] | 98 | –
